{"source": "patent US11028084B2", "about": "“Selective inhibitors of gentotoxic steress-induced IKK/NF-κB pathways” (Max-Delbrück-Centrum für Molekulare Medizin in der …, priority 2016, dated 2021)", "type_in_all_cases": "cell-based, human", "key": {"[1]": {"tested_on": "ATM cytoplasmic translocation", "assay": "Cytoplasmic accumulation of ATM, fractionation experiment (NE/CE) with WB, HepG2 cells", "conditions": "5 μM", "protocol": "FIG. 7: Cytoplasmic accumulation of ATM. (A) Fractionation experiment with separated nuclear extracts (NE) and cytoplasmic extracts (CE). PARP1 and LDH staining served as loading and fractionation controls. Cells were pre-treated with DMSO or MW01 (5 μM) prior to irradiation and cell harvesting at indicated times. NE and CE were subjected to SDS-PAGE/WB procedure. (B) U2OS cells were seeded on cover slips 2 days before treatment. The cells were pre-treated with solvent DMSO alone or with MW01 prior to irradiation, cell fixation and subsequent immunofluorescence staining.\nFor the preparation of nuclear and cytoplasmic fractions, cells were lysed with buffer A (supplemented with 1 mM DTT, 10 mM NaF, 20 mM β-glycerophosphate, 250 nM NaVO3, complete protease inhibitor cocktail (Roche) and 50 nM calyculin A. Lysates were adjusted to a final concentration of 0.2% NP-40, vortexed for 10 s and spun down. The supernatant, representing the cytoplasmic extract (CE), was transferred into a new 1.5 ml reaction tube. The pellet was washed with buffer A, was resuspended with buffer C and shaken for 20 min at 4° C. Following 10 min of centrifugation at 14,000 rpm, the supernatant, representing the nuclear extract (NE), was transferred into a new reaction cap."}, "U2OS cells": {"tested_on": "U2OS cells", "assay": "qRT-PCR of anti- and pro-apoptotic genes after γ-IR, U2OS cells", "protocol": "FIG. 15: (A), (B) U2OS cells were pre-treated with DMSO or MW01 and irradiated. After 8 h mRNA was isolated and reversely transcribed into cDNA. The obtained cDNA was used to perform qRT-PCR using gene specific exon-exon-spanning primers for mRNA of anti-apoptotic (A) and pro-apoptotic genes (B).\nTo quantitate specific mRNA (messenger RNA) species in samples RNA was isolated, RNA concentration was measured and mRNA was transcribed into cDNA. The amount of mRNA transcripts of certain genes within a sample was quantified by employing gene specific primers and using a C-1000 Thermal cycler (Biorad). The expression of genes of interest was normalised against two or three reference genes (HRPT1, RPL_13a and B2M) using the CFX manager software. The fold induction of mRNA was calculated over untreated sample levels by the ΔΔ-Ct method."}, "DNA repair mechanisms": {"tested_on": "DNA repair mechanisms", "assay": "γH2AX foci per nucleus, immunofluorescence, U2OS cells", "conditions": "5 μM, untreated (non-irradiated) cells, 5 hours", "protocol": "FIG. 17: U2OS cells grown on coverslips were incubated 30 min with DMSO or MW01 (5 μM). Then, cells were γ-irradiated (5 Gy) or mock irradiated (mock IR). After 5 hours, cells were fixed and subjected to immunofluorescence staining procedure. DNA damage-indicating γH2AX foci and nuclei n≥480 nuclei per condition) were counted for the calculation of average foci per nucleus. Significance was calculated using student's t-test.\nU2OS cells were grown on coverslips and incubated 30 min with DMSO or MW01 (5 μM). Then, cells were γ-irradiated (5 Gy) or mock irradiated (mock IR). After 5 hours, cells were fixed and subjected to immunofluorescence staining procedure. DNA damage-indicating γH2AX foci and nuclei (n≥480 nuclei per condition) were counted for the calculation of average foci per nucleus. Significance was calculated using student's t-test."}, "[2]": {"tested_on": "TNFα-induced NF-κB activation", "assay": "NF-κB DNA binding activity (EMSA) after TNFα stimulation, HEK293 cells", "protocol": "FIG. 4: (A) U2OS cells were pre-treated with increasing concentrations of MW01 in triplicates in a 384 well plate. Then, cells were treated with TNFα, fixed and subjected to IF staining of p65. Spatial measurement of p65 cytosolic and nuclear signals was used for the calculation of p65 translocation rates. (B) U2OS cells were pre-treated with MW01 at concentrations of 10 or 20 μM and stimulated with TNFα. Cell lysates were subjected to SDS-PAGE/WB. (C) HEK293 cells were pre-treated with DMSO or MW01 followed by administration of etoposide or TNFα. Cell lysates were used for EMSA.\nFor the activation of the canonical NF-κB pathway cells were treated with recombinant human TNFα (10 ng/ml) or IL-1β (10 ng/ml) for 20-30 min at 37° C.\n(§1) Nuclear or whole cell lysates were incubated with a ^32P-labeled NF-κB DNA-[…]"}, "[3]": {"tested_on": "ATM substrate histone H2AX", "assay": "Phospho-H2AX immunofluorescence after etoposide, U2OS cells", "conditions": "after etoposide treatment", "protocol": "FIG. 2: U2OS cells were pre-treated and incubated with DMSO or MW01. DNA damage was induced by administration of etoposide. After 2 h cells were fixed, nuclei were stained with DAPI. p65 and phospho-H2AX, which is indicative for DNA DSB, were stained by immunofluorescence. Images were taken at a confocal Zeiss 710 LSM with a 40× oil objective."}, "[4]": {"tested_on": "NF-κB DNA binding activity", "assay": "NF-κB DNA binding activity (EMSA) after γ-IR or etoposide, U2OS cells", "protocol": "FIG. 3: (A) U2OS cells were pre-treated with increasing concentrations of MW01 in duplicates in a 384 well plate. Then, cells were treated with etoposide, fixed and subjected to IF of p65. Spatial measurement of p65 cytosolic and nuclear localisation was used for calculation of p65 translocation rates. (B) U2OS cells were pre-treated with DMSO, MW01 and irradiated with γ-IR. After 90 min cells were lysed and subjected to SDS-PAGE/WB and EMSA. (C) Cells were pre-treated with different concentrations of MW01 as indicated, treated with γ-IR (C) or etoposide (D) and subjected to WB or EMSA, respectively. LDH in (C) represents the loading control.\nas §1\nFor electrophoresis, a current of 26 mA was applied for 2 h. After drying the gel onto a Whatman paper, signals were visualised on an autoradiography film (GE Healthcare) after overnight incubation at −80° C. in a radiography cassette. All work using radioactive substances were done at a monitored work space suitable for radioactive work."}}, "data": [{"compound": "COc1ccc2c(c1OC)c(=O)n1c3ccc(O)cc3c3ccnc2c31", "note": "[MW01, 12-hydroxy-6,7-dimethoxy-8H-benzo[c]indolo[3,2,1-ij][1,5]naphthyridin-8-one]", "values": [{"measurement": "accumulation of total ATM in the cytoplasm", "setting": "[1]; 45 min after irradiation", "value": "inhibited the accumulation of ATM in the cytoplasm"}, {"measurement": "detection of phosphorylated ATM in nuclear extracts", "setting": "[1]; 45 min and 90 min after irradiation", "value": "did not affect"}, {"measurement": "detection of activated ATM species in the cytoplasmic extracts", "setting": "[1]; after irradiation", "value": "abolished"}, {"measurement": "BIRC3 mRNA", "setting": "U2OS cells; 8 h after γ-IR", "value": "down-regulated"}, {"measurement": "expression of BCL2L1 mRNA", "setting": "U2OS cells; 8 h after γ-IR", "value": "fully inhibited"}, {"measurement": "expression of XIAP mRNA", "setting": "U2OS cells; 8 h after γ-IR", "value": "moderately inhibited"}, {"measurement": "BBC3 mRNA expression, induction", "setting": "U2OS cells; after irradiation", "value": 3, "unit": "fold"}, {"measurement": "PMAIP1 mRNA expression", "setting": "U2OS cells; after irradiation", "value": "further elevated"}, {"measurement": "mRNA expression of TNFAIP3", "setting": "U2OS cells; after γ-IR, in comparison to irradiated controls", "value": "abolished mRNA expression"}, {"measurement": "mRNA expression of PMAIP1", "setting": "U2OS cells; pre-treatment without irradiation", "value": "already increased"}, {"measurement": "BBC3 mRNA expression", "setting": "U2OS cells; without irradiation", "value": "not influenced"}, {"measurement": "mRNA expression of BIRC3, XIAP or BCL2L1 in comparison to the DMSO control", "setting": "U2OS cells; without irradiation", "value": "did not significantly change"}, {"measurement": "γH2AX foci per cell", "setting": "DNA repair mechanisms", "value": "significant increase"}, {"measurement": "induced NF-κB DNA binding activity upon TNFα stimulation", "setting": "[2]", "value": "did not interfere with induced NF-κB DNA binding activity"}, {"measurement": "phosphorylation of the ATM substrate histone H2AX", "setting": "[3]", "value": "did not lead to impaired phosphorylation"}, {"measurement": "etoposide-induced NF-κB DNA binding activity", "setting": "[4]; etoposide", "value": "inhibited by MW01 pre-treatment in a concentration dependent manner"}, {"measurement": "γ-IR-induced NF-κB DNA binding activity", "setting": "[4]; γ-IR, 90 min, U2OS", "value": "inhibited the γ-IR-induced NF-κB DNA binding activity"}]}]}
